Test results published in patent EP1285920A1, “C10 Ester sustituted taxanes as antitumor agents” (Florida State University Research Foundation, Inc., priority 2001, dated 2003).
Like-named read-outs stand apart in the source and are kept apart here.

Legend:
DU145 prostate carcinoma = settings: for total response rate: iv; for Toxic Deaths: i.v. qd x 1 at estimated MTD (Taxol 24 mg/kg as two split doses); for complete responses: five mice per group
Text: Dosing was initiated on Day 1. […] Treatment groups are detailed in Table 5.

A375 melanoma = tested on: A375 melanoma
Procedure: Dosing was initiated on Day 1. […] Taxotere was given i.v. on a qd x 1 schedule at a dose of 70 mg/kg. […] The study was terminated on Day 60. Treatment groups are detailed in Table 9.

VM46 colon carcinoma = settings: for response rate: i.v. qd x 1 at estimated MTD; for Complete Response / Partial Response / Stable Disease / Survivors: Day 64
Procedure: Dosing was initiated on Day 1. […] Taxotere was given i.v. at a dose of 70 mg/kg on a qd x 1 schedule.

HCT116 carcinoma = settings: for Survivors / Toxic Deaths: number of 5 mice, i.v. qd x 1 at MTD, Day 60; for Survivors: doses as in E3; for Toxic Deaths: mg/kg: Taxol 36 (split doses), 0503 72.6, 0536 49, 0663 159, 0670 123, 0687 159, 0706 108, 0908 159, 0947 76.9, 0951 72.6, 0983 72.6, 0999 49, 1003 49, 1011 108
Procedure: Antitumor compounds were formulated for an i.v. dosing regime and were prepared in the following vehicle: 5% ethanol, 5% Cremophor and 90% isotonic saline.
(§1) The antitumor compounds were given intravenously in a single maximum tolerated dose (MTD) appropriate for each compound. […] The MTDs for the antitumor compounds were calculated from earlier single dose data for mice receiving i.v. administration of these compounds. All vehicle control animals in the split dosing regimes were dosed twice intravenously with half of the total volume being given separated by one hour. The study was terminated on Day 60.
A complete response is obtained if the tumor is not palpable at the end of the study.

HCT116 = test: In Vitro cytotoxicity measured by the cell colony formation assay; type: cell-based, human; settings: Homo sapiens, HCT-116; read-out: IN VITRO ID 50 HCT116
Method in brief: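 Four hundred cells per dish in McCoy's 5a medium with 10% FBS were allowed to attach for 5 h at 37 °C. They were then exposed to compound for 72 h at 37 °C, added as a 10× stock made fresh in medium. After HBSS rinsing and refeeding, colonies were counted after 7 days.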

[1] = tested on: Panc-1 pancreatic carcinoma; test: In vivo evaluation against Panc-1 human pancreatic carcinoma (Example 17); settings: for MDS: i.v. qd x 1 (compounds estimated MTD; Taxol 36 mg/kg split), days until tumor 1.5 g, ended Day 60; for MDS (n): mean days of survival until neoplasm reached 1.5 g, terminated Day 60; for Mean Score: tumor scoring system
Procedure: The dosing volume was 0.3 ml per 20 g mouse.
Female NCr-nude mice were implanted subcutaneously with 1 mm^3 Panc-1 pancreatic carcinoma fragments in the flank and sorted into treatment groups of six mice each. […] Dosing was initiated on Day 1. The antitumor compounds were given i.v. at an estimated maximum tolerated dose (MTD) appropriate for each agent on a qd x 1 schedule (single administration of compound). […] The vehicle was administered i.v. to control mice in Group 1 on the qd x 1 schedule. The study was terminated on Day 60.
The mean days of survival is the number of days after which a neoplasm reached a size of 1.5 g and the animal was euthanized. A complete response is obtained if the tumor shrinks to a size smaller than its size on Day 1 of the study.

MX-1 carcinoma = settings: for Survivors / Toxic Deaths: number of 6 mice, i.v. qd x 1 at MTD, Day 60; for Survivors: doses as in E17; for Toxic Deaths: mg/kg: Taxol 36 (split dose), 0503 72.6, 0536 49, 0663 159, 0670 123, 0687 159, 0706 108, 0908 159, 0947 76.9, 0951 72.6, 0983 67.4, 0999 49, 1003 49, 1011 108
Procedure: Thirteen antitumor compounds were formulated for an i.v. dosing regime (single i.v. bolus, qd x 1 schedule) prepared in the following vehicle: 5% ethanol, 5% Cremophor and 90% isotonic saline.
as §1, with “half” for “half of”
A complete response is obtained if the tumor is not palpable at the end of the study. […]

A2780 ovarian carcinoma = tested on: A2780 ovarian carcinoma
Procedure: Dosing was initiated on Day 1. […] Taxotere was given i.v. on a qd x 1 schedule at a dose of 70 mg/kg. […] The study was terminated on Day 60. Treatment groups are detailed in Table 7.

[2] = number of 5 mice, i.v. qd x 1 at estimated MTD (Taxol 24 mg/kg split), Day 91
[3] = number of mice, i.v. qd x 1 at estimated MTD (Taxol 24 mg/kg, Taxotere 70 mg/kg), 6 mice/group (Taxotere 7)
[4] = number of mice, i.v. qd x 1 at estimated MTD (Taxol 24 mg/kg, Taxotere 70 mg/kg), 6 mice/group (Taxotere 7), Day 60
[5] = number of mice, i.v. qd x 1, mg/kg: Taxol 24, 0499 77, 0503 72.6, 0670 123.1, 0706 107.6, 0838 72.6, 0854 46.6, 0983 67.4, Taxotere 70, 6 mice/group
[6] = Panc-1 (Example 17), i.v. qd x 1, six mice per group
[7] = i.v. qd x 1, mg/kg: Taxol 36, 0499 77, 0503 72.6, 0670 123.1, 0706 107.6, 0838 72.6, 0854 76.9, 6 mice/group
[8] = number of mice, i.v. qd x 1, mg/kg: Taxol 36, 0499 77, 0503 72.6, 0670 123.1, 0706 107.6, 0838 72.6, 0854 76.9, 6 mice/group
[9] = number of mice, i.v. qd x 1, mg/kg: Taxol 36, 0499 77, 0503 72.6, 0670 123.1, 0706 107.6, 0838 72.6, 0854 76.9, 6 mice/group, Day 60

SMILES	total response rate (DU145 prostate carcinoma)	Toxic Deaths (DU145 prostate carcinoma; number of 5 mice, Day 91)	Survivors (DU145 prostate carcinoma; [2])	Toxic Deaths (A375 melanoma; [3])	Survivors (A375 melanoma; [4])	response rate (VM46 colon carcinoma; VM46)	Toxic Deaths (VM46 colon carcinoma; [5])	Complete Response (VM46 colon carcinoma; [5])	Partial Response (VM46 colon carcinoma; [5])	Stable Disease (VM46 colon carcinoma; [5])	Survivors (VM46 colon carcinoma; [5])	Partial Response (HCT116 carcinoma; iv)	Complete Response (HCT116 carcinoma; iv, 1440 h)	Mean Score (HCT116 carcinoma; iv, 1440 h)	MDS ([1]; Panc-1 (Example 17)) [days]	Toxic Deaths [1, 8]	Complete Response [1, 9]	Partial Response [1, 9]	Stable Disease [1, 9]	Mean Score [1, 7]	other results
CCC(=O)O[C@H]1C(=O)[C@@]2(C)[C@H]([C@H](OC(=O)c3ccccc3)[C@]3(O)C[C@H](OC(=O)[C@H](O)[C@@H](NC(=O)c4ccccc4)c4ccoc4)C(C)=C1C3(C)C)[C@]1(OC(C)=O)CO[C@@H]1C[C@@H]2O [Compound 0670]	20-50%	0	4	0	0	16.7-40%	0	0	1	0	1	1	2	6.6 ± 1.9	47 to 56	1	1	0	2	4.2 ± 1.7	Mean Score (VM46 colon carcinoma; iv): 2.8 ± 1.2; MDS (n) (VM46 colon carcinoma; iv, 1536 h): 40.1 ± 5.8 (5) days; MDS (n) (HCT116 carcinoma; iv, 1440 h): 29.8 ± 0.7 (2) days; Stable Disease (HCT116 carcinoma; iv, 1440 h): 0; Survivors (HCT116 carcinoma): 3; Toxic Deaths (HCT116 carcinoma): 0; IC50 (HCT116): < 1 nM; Toxic Deaths [1, 6]: One; MDS (n) [1, 7]: 51.2 ± 5.9 (2) days; Partial Response (MX-1 carcinoma; iv): 1; Complete Response (MX-1 carcinoma; iv, 1440 h): 1; MDS (n) (MX-1 carcinoma; iv, 1440 h): 28.5 ± 6.1 (4) days; Mean Score (MX-1 carcinoma; iv, 1440 h): 4.3 ± 1.6; Stable Disease (MX-1 carcinoma; iv, 1440 h): 0; Survivors (MX-1 carcinoma): 2; Toxic Deaths (MX-1 carcinoma): 0
CCC(=O)O[C@H]1C(=O)[C@@]2(C)[C@H]([C@H](OC(=O)c3ccccc3)[C@]3(O)C[C@H](OC(=O)[C@H](O)[C@@H](NC(=O)c4ccccc4)C4CC4)C(C)=C1C3(C)C)[C@]1(OC(C)=O)CO[C@@H]1C[C@@H]2O [Compound 0706]	20-50%	0	3	1	0	56%	0	1	2	0	3	4	1	9.2 ± 0.2	47 to 56	0	0	3	2	6.6 ± 1	Mean Score (A2780 ovarian carcinoma; iv, 72.6 mg/kg): 3 ± 0; Complete Response (A2780 ovarian carcinoma; iv, 72.6 mg/kg, 1440 h): 0; MDS (n) (A2780 ovarian carcinoma; iv, 72.6 mg/kg, 1440 h): 37.0 ± 4.1 (5) days; Partial Respons (A2780 ovarian carcinoma; iv, 72.6 mg/kg, 1440 h): 0; Stable Disease (A2780 ovarian carcinoma; iv, 72.6 mg/kg, 1440 h): 0; Toxic Deaths (A2780 ovarian carcinoma; number of mice, i.v. qd x 1 at estimated MTD (Taxol 24 mg/kg, Taxotere 70 mg/kg, 0983 72.6 mg/kg), 5 mice/group (Taxotere 6)): 0; Survivors (A2780 ovarian carcinoma; number of mice, i.v. qd x 1 at estimated MTD (Taxol 24 mg/kg, Taxotere 70 mg/kg, 0983 72.6 mg/kg), 5 mice/group (Taxotere 6), Day 60): 0; complete responses (DU145 prostate carcinoma; DU145, i.v. qd x 1): 2; MDS (n) (VM46 colon carcinoma; mean days of survival until neoplasm reached 1.5 g, i.v. qd x 1, mg/kg: Taxol 24, 0499 77, 0503 72.6, 0670 123.1, 0706 107.6, 0838 72.6, 0854 46.6, 0983 67.4, Taxotere 70, 6 mice/group, terminated Day 64): 48.6 ± 0.9 (3) days; Mean Score (VM46 colon carcinoma; tumor scoring system, i.v. qd x 1, mg/kg: Taxol 24, 0499 77, 0503 72.6, 0670 123.1, 0706 107.6, 0838 72.6, 0854 46.6, 0983 67.4, Taxotere 70, 6 mice/group): 6.2 ± 1.4; Stable Disease (HCT116 carcinoma; iv, 1440 h): 0; Survivors (HCT116 carcinoma): 5; Toxic Deaths (HCT116 carcinoma): 0; IC50 (HCT116): < 1 nM; Partial Response (MX-1 carcinoma; iv): 0; Complete Response (MX-1 carcinoma; iv, 1440 h): 5; Mean Score (MX-1 carcinoma; iv, 1440 h): 8.3 ± 1.7; Stable Disease (MX-1 carcinoma; iv, 1440 h): 0; Survivors (MX-1 carcinoma): 5; Toxic Deaths (MX-1 carcinoma): 1
CC(=O)O[C@@]12CO[C@@H]1C[C@H](O)[C@@]1(C)C(=O)[C@H](OC(=O)C3CC3)C3=C(C)[C@@H](OC(=O)[C@H](O)[C@H](C=C(C)C)NC(=O)OC(C)(C)C)C[C@@](O)([C@@H](OC(=O)c4ccccc4)[C@H]21)C3(C)C [Compound 0838]		0	4	0	1		0	0	1	3	4				47 to 56	1	0	2	3	3.6 ± 1.1	antitumor activity (DU145 prostate carcinoma; DU145, i.v. qd x 1): active; complete responses (DU145 prostate carcinoma; DU145, i.v. qd x 1): 2; Mean Score (DU145 prostate carcinoma; i.v. qd x 1 at estimated MTD (Taxol 24 mg/kg split), 5 mice/group, Day 91): 7 ± 1.5; Stable Disease (DU145 prostate carcinoma; number of 5 mice, tumor did not reach 1.5 g by end of study, i.v. qd x 1 at estimated MTD (Taxol 24 mg/kg split), Day 91): 1; Complete Response (DU145 prostate carcinoma; [2]): 2; Partial Response (DU145 prostate carcinoma; [2]): 1; survival extension compared to Group 1 controls (A375 melanoma; A375, i.v. qd x 1): 133%; MDS (n) (A375 melanoma; mean days of survival until neoplasm reached 2.0 g, i.v. qd x 1 at estimated MTD (Taxol 24 mg/kg, Taxotere 70 mg/kg), 6 mice/group (Taxotere 7), terminated Day 60): 33.5 ± 3.4 (5) days; Complete Response (A375 melanoma; [4]): 1; Partial Response (A375 melanoma; [4]): 0; Stable Disease (A375 melanoma; [4]): 0; Mean Score (A375 melanoma; tumor scoring system, i.v. qd x 1 at estimated MTD (Taxol 24 mg/kg, Taxotere 70 mg/kg), 6 mice/group (Taxotere 7)): 3.8 ± 1.2; Toxic Deaths (VM46 colon carcinoma; VM46, i.v. qd x 1, six mice per group): no toxic deaths; Toxic Deaths [1, 6]: One; MDS (n) [1, 7]: 54.2 ± 0.9 (2) days; Survivors [1, 9]: 3
